Laboratory results: patent publication US20190388320A1, “METHOD OF STRENGTHENING HAIR” (Conopco, Inc. d/b/a UNILEVER, priority 2017, published 2019)

Assay: Denaturation temperature Td of treated hair fibres by DSC
Details: soaked for 30 minutes in 2% aqueous solution; for Average Td (n = 3): denaturation temperature by DSC, hair switches washed, left to dry; for Change in Td of the treated fibres: in words, relative to Control (water)
Method: Virgin dark brown European hair switches of length 25 cm and weight 2 gms, were treated as follows: • Control: After initial washing, soaked for 30 minutes in water • Example 1: After initial washing, soaked for 30 minutes in a 2% aqueous solution of N-α-acetyl-L-lysine • Example A: After initial washing, soaked for 30 minutes in a 2% aqueous solution of L-lysine • Example B: After initial washing, soaked for 30 minutes in a 2% aqueous solution of N-α-acetyl-L-arginine
At the end of the soaking period the switches were left to dry and clippings from a few fibres were used to measure denaturation temperature Td using DSC.

Compound | Average Td (n = 3) | Change in Td of the treated fibres
CC(=O)N[C@@H](CCCCN)C(=O)O [Example 1, N-α-acetyl-L-lysine] | 153.4 | substantial and significant increase in Td
NCCCC[C@H](N)C(=O)O [Example A, L-lysine] | 148.1 | decrease Td
CC(=O)N[C@@H](CCCNC(=N)N)C(=O)O [Example B, N-α-acetyl-L-arginine] | 148.2 | decrease Td
